Test results published in patent US9681664B2, “Macrocyclic picolinamides as fungicides” (Dow Agrosciences LLC, priority 2012, dated 2017).
Read-outs that look alike come from different tables or passages of the source.

Assays:
Assay type in all cases: in vivo
[1] = test system: Mycosphaerella graminicola; Anamorph: Septoria tritici; experiment: Leaf blotch of wheat (SEPTTR) disease control on wheat seedlings; conditions: Zymoseptoria tritici; for pest or weed control at 121.5 g/ha: low volume application, 121.5 g/H
How it was run: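 Protective or curative format: Septoria tritici inoculation either preceded or followed fungicide application to first-leaf Yuma wheat. Severity scored 0–100%; control expressed versus untreated.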

[2] = test system: Erysiphe cichoracearum; experiment: Powdery mildew of cucumber (ERYSCI) disease control; conditions: Golovinomyces cichoracearum, 24 h, 1 Day Protectant, high volume, read-out: Disease Control ERYSCI 1 DP
Protocol: Technical grades of materials were dissolved in acetone, which were then mixed with nine volumes of water containing 110 ppm Triton X-100. The fungicide solutions were applied onto wheat seedlings using an automated booth sprayer to run-off. All sprayed plants were allowed to air dry prior to further handling. All fungicides were evaluated using the aforementioned method for their activity vs. all target diseases. Wheat leaf blotch and brown rust activity were also evaluated using track spray applications, in which case the fungicides were formulated as EC formulations, containing 0.1% Trycol 5941 in the spray solutions. Cucumber seedlings (variety Bush Pickle) were grown in soil-less Metro mix, with one plant per pot, and used in the test when 12 to 14 days old. Plants were inoculated with a spore suspension 24 hr following fungicide treatments. After inoculation the plants remained in the greenhouse set at 20° C. until disease was fully expressed. Fungicide formulation, application and disease assessment on the sprayed leaves followed the procedures as described in the Example A.

[3] = test system: Magnaporthe grisea; Anamorph: Pyricularia oryzae; experiment: whole plant or invertebrate; conditions: 24 h, read-out: PYRIOR 1 DP disease control
[4] = test system: Alternaria solani; experiment: Tomato early blight (ALTESO) disease control; conditions: 24 h, 1 Day Protectant, high volume, read-out: Disease Control ALTESO 1 DP
Protocol: Technical grades of materials were dissolved in acetone, which were then mixed with nine volumes of water containing 110 ppm Triton X-100. The fungicide solutions were applied onto wheat seedlings using an automated booth sprayer to run-off. All sprayed plants were allowed to air dry prior to further handling. All fungicides were evaluated using the aforementioned method for their activity vs. all target diseases. Wheat leaf blotch and brown rust activity were also evaluated using track spray applications, in which case the fungicides were formulated as EC formulations, containing 0.1% Trycol 5941 in the spray solutions. Tomato plants (variety Outdoor girl) were propagated in soil-less Metro mix, with each pot having one plant, and used when 12 to 14 days old. Test plants were inoculated with an aqueous spore suspension of Alternaria solani 24 hr after fungicide treatments. After inoculation the plants were kept in 100% relative humidity (one day in a dark dew chamber followed by two to three days in a lighted dew chamber at 20° C.) to permit spores to germinate and infect the leaf. The plants were then transferred to a growth room at 22° C. for disease to develop. Fungicide formulation, application and disease assessment on the sprayed leaves followed the procedures as described in the Example A.

[5] = test system: Phakopsora pachyrhizi; experiment: Asian soybean rust (PHAKPA) disease control; conditions: topical, high volume
Protocol: Technical grades of materials were dissolved in acetone, which were then mixed with nine volumes of water containing 0.011% Tween 20. The fungicide solutions were applied onto soybean seedlings using an automated booth sprayer to run-off. All sprayed plants were allowed to air dry prior to further handling.
Soybean plants (variety Williams 82) were grown in soil-less Metro mix, with one plant per pot. Two weeks old seedlings were used for testing. Plants were inoculated either 3 days prior to or 1 day after fungicide treatments. Plants were incubated for 24 h in a dark dew room at 22° C. and 100% RH then transferred to a growth room at 23° C. for disease to develop. Disease severity was assessed on the sprayed leaves.

[6] = test system: Glomerella lagenarium; Anamorph: Colletotrichum lagenarium; experiment: Cucumber anthracnose (COLLLA) disease control; conditions: Colletotrichum orbiculare, 24 h, 1 Day Protectant, high volume, read-out: Disease Control COLLLA 1 DP
Protocol: Technical grades of materials were dissolved in acetone, which were then mixed with nine volumes of water containing 110 ppm Triton X-100. The fungicide solutions were applied onto wheat seedlings using an automated booth sprayer to run-off. All sprayed plants were allowed to air dry prior to further handling. All fungicides were evaluated using the aforementioned method for their activity vs. all target diseases. Wheat leaf blotch and brown rust activity were also evaluated using track spray applications, in which case the fungicides were formulated as EC formulations, containing 0.1% Trycol 5941 in the spray solutions. Cucumber seedlings (variety Bush Pickle) were propagated in soil-less Metro mix, with each pot having one plant, and used in the test when 12 to 14 days old. Test plants were inoculated with an aqueous spore suspension of Colletotrichum lagenarium 24 hr after fungicide treatments. After inoculation the plants were kept in a dew room at 22° C. with 100% relative humidity for 48 hr to permit spores to germinate and infect the leaf. The plants were then transferred to a growth room set at 22° C. for disease to develop. Fungicide formulation, application and disease assessment on the sprayed leaves followed the procedures as described in the Example A.

[7] = 24 h, High volume application, 1 Day Protectant, read-out: SEPTTR 1DP disease control
[8] = 72 h, High volume application, 3 Day Curative, read-out: SEPTTR 3DC disease control
[9] = 24 h, 1 Day Protectant, read-out: Disease Control PHAKPA 1DP
[10] = 72 h, 3 Day Curative, read-out: Disease Control PHAKPA 3DC
[11] = 24 h, Wheat Leaf Blotch, 1 Day Protectant, read-out: Disease Control SEPTTR 1 DP 121.5 g/H
[12] = 72 h, Wheat Leaf Blotch, 3 Day Curative, read-out: Disease Control SEPTTR 3 DC 121.5 g/H

Row | Compound | pest or weed control at 100 ppm [1, 7] [%] | pest or weed control at 100 ppm [1, 8] [%] | pest or weed control at 100 ppm [2] [%] | pest or weed control at 100 ppm [3] [%] | pest or weed control at 100 ppm [4] [%] | pest or weed control at 25 ppm [5, 9] [%] | pest or weed control at 100 ppm [6] [%] | pest or weed control at 25 ppm [5, 10] [%] | pest or weed control at 121.5 g/ha [1, 11] [%] | pest or weed control at 121.5 g/ha [1, 12] [%] | pest or weed control at 100 ppm ([1]; 24 h, Wheat Leaf Blotch, 1 Day Protectant, high volume application, read-out: Disease Control SEPTTR 1 DP 100 ppm) [%] | pest or weed control at 100 ppm ([1]; 72 h, Wheat Leaf Blotch, 3 Day Curative, high volume application, read-out: Disease Control SEPTTR 3 DC 100 ppm) [%]
1 | COc1ccc(O[C@H]2CCC[C@H](NC(=O)c3nccc(OC)c3OCOC(=O)C(C)C)C(=O)O[C@@H](C)[C@@H]2OC2CCCC2)cc1 [F169] | 80 to 100 | 80 to 100 | 80 to 100 | 80 to 100 | 80 to 100 |  |  |  |  |  |  | 
2 | COc1ccnc(C(=O)N[C@H]2CCC[C@H](OCC(C)C)[C@@H](OCC(C)C)[C@H](C)OC2=O)c1OCOC(C)=O [F29] | 80 to 100 | 80 to 100 | 80 to 100 | 80 to 100 | 80 to 100 | 80 to 100 | 80 to 100 |  |  |  |  | 
3 | CCCO[C@H]1CCC[C@H](NC(=O)c2nccc(OC)c2OC(C)=O)C(=O)O[C@@H](C)[C@@H]1Oc1ccccc1 [F141] | 80 to 100 | 80 to 100 | 0 to 80 | 80 to 100 | 80 to 100 | 80 to 100 | 80 to 100 | 80 to 100 |  |  |  | 
4 | COc1ccnc(C(=O)N[C@H]2CCC[C@H](Oc3ccccc3)[C@@H](OC)[C@H](C)OC2=O)c1OCOC(=O)C(C)C [F255] |  |  | < 0 | 80 to 100 | 0 to 80 | 80 to 100 | 80 to 100 | 0 to 80 | 0 to 80 | 0 to 80 |  | 
5 | CCOCC(=O)OCOc1c(OC)ccnc1C(=O)N[C@H]1CCC[C@H](Oc2ccccc2)[C@@H](OC(=O)C2CCCC2)[C@H](C)OC1=O [F237] |  |  | < 0 | 80 to 100 | 0 to 80 | 80 to 100 | 0 to 80 | < 0 | < 0 | 0 to 80 | 0 to 80 | 0 to 80
6 | COc1ccnc(C(=O)N[C@H]2CCC[C@H](OCC(C)C)[C@@H](Oc3ccccc3)[C@H](C)OC2=O)c1OCOC(C)=O [F26] | 80 to 100 | 80 to 100 | 0 to 80 |  |  | 80 to 100 | 80 to 100 | 80 to 100 |  |  |  | 
7 | CCCCCO[C@H]1[C@H](C)OC(=O)[C@@H](NC(=O)c2nccc(OC)c2OCOC(C)=O)CCC[C@@H]1OC1CCCC1 [F166] | 80 to 100 | 80 to 100 | 80 to 100 | 80 to 100 | 80 to 100 | 80 to 100 |  | 80 to 100 |  |  |  | 
8 | COc1ccnc(C(=O)N[C@H]2CCC[C@H](Oc3ccccc3)[C@@H](OCCCc3ccccc3)[C@H](C)OC2=O)c1OCOC(C)=O [F130] | 80 to 100 | 80 to 100 | 80 to 100 | 80 to 100 | 80 to 100 | 80 to 100 |  | 0 to 80 |  |  |  | 
